Laboratory results as given in BindingDB's records for doi:10.1016/j.bmcl.2021.128215 (Shenyang Pharmaceutical University, 2021).

Target: Apoptosis regulator Bcl-2 (Homo sapiens) (UniProt P10415)
Assay: Binding affinity to Bcl-2 (unknown origin) by fluorescence polarization competition assay

Chain of Apoptosis regulator Bcl-2 (Homo sapiens) (P10415 whole entry, looked up): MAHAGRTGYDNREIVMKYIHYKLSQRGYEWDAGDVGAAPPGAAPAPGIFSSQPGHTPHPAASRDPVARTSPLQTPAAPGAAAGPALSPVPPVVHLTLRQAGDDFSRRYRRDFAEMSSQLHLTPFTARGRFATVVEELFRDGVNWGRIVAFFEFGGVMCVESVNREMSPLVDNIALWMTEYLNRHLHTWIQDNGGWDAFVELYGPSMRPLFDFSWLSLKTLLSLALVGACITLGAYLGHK

Compound | Ki
Cc1cccc(-c2cn(CCCOc3cccc4ccccc34)c3cccc(-c4ccccc4C(=O)O)c23)c1 | 560 nM
COc1cccc(-c2cn(Cc3cccc4ccccc34)c3cccc(-c4ccccc4C(=O)O)c23)c1 | 530 nM
Cc1cccc(-c2cn(CCOc3cccc4ccccc34)c3cccc(-c4ccccc4C(=O)O)c23)c1C | 1300 nM
COc1ccccc1-c1cn(Cc2cccc3ccccc23)c2cccc(-c3ccccc3C(=O)O)c12 | 1280 nM
CC(C)c1ccccc1-c1cn(CCOc2cccc3ccccc23)c2cccc(-c3ccccc3C(=O)O)c12 | 1740 nM
O=C(O)c1ccccc1-c1cccc2c1ccn2CCCOc1cccc2ccccc12 | 4530 nM
O=C(O)c1ccccc1-c1cccc2c1c(-c1ccccc1)cn2Cc1cccc2ccccc12 | 820 nM
O=C(O)c1ccccc1-c1cccc2c1c(-c1cccc(Cl)c1)cn2Cc1cccc2ccccc12 | 100 nM
Cc1cccc(-c2cn(Cc3cccc4ccccc34)c3cccc(-c4ccccc4C(=O)O)c23)c1 | 1800 nM
Cc1ccccc1-c1cn(Cc2cccc3ccccc23)c2cccc(-c3ccccc3C(=O)O)c12 | 660 nM
O=C(O)c1ccccc1-c1cccc2c1c(-c1cccc(C(F)(F)F)c1)cn2CCOc1cccc2ccccc12 | 250 nM
Cc1ccc(-c2cn(Cc3cccc4ccccc34)c3cccc(-c4ccccc4C(=O)O)c23)cc1 | 800 nM
O=C(O)c1ccccc1-c1cccc2c1c(-c1cccc(Cl)c1)cn2CCOc1cccc2ccccc12 | 3210 nM

The remaining compounds from weak to strong by Ki, led by results:

Ki | Compound
2550 nM | O=C(O)c1ccccc1-c1cccc2c1c(-c1cccc(C(F)(F)F)c1)cn2CCCOc1cccc2ccccc12
1080 nM | O=C(O)c1ccccc1-c1cccc2c1c(-c1cccc(C(F)(F)F)c1)cn2Cc1cccc2ccccc12
870 nM | Cc1ccc(-c2cn(CCOc3cccc4ccccc34)c3cccc(-c4ccccc4C(=O)O)c23)cc1
820 nM | COc1ccccc1-c1cn(CCOc2cccc3ccccc23)c2cccc(-c3ccccc3C(=O)O)c12
490 nM | O=C(O)c1ccc(Cl)cc1-c1cccc2c1ccn2CCCOc1cccc2ccccc12
360 nM | Cc1cccc(-c2cn(CCOc3cccc4ccccc34)c3cccc(-c4ccccc4C(=O)O)c23)c1
300 nM | CCc1ccccc1-c1cn(CCOc2cccc3ccccc23)c2cccc(-c3ccccc3C(=O)O)c12
250 nM | Cc1ccccc1-c1cn(CCOc2cccc3ccccc23)c2cccc(-c3ccccc3C(=O)O)c12
